In ChEMBL document CHEMBL1140514, “Some new acyclic nucleotide analogues as antiviral prodrugs: synthesis and bioactivities in vitro” (Bioorg Med Chem Lett, 2007):

Assays:
Hepatitis B virus = assay: Antiviral activity against Hepatitis B virus infected human HepG2 cells after 9 days by MTT assay; type: functional, organism-based; conditions: HepG2, 216 h
HepG2 = assay: Cytotoxicity against human HepG2 cells after 9 days by MTT assay; type: functional, cell-based; conditions: HepG2, 216 h
[1] = Therapeutic index, Ratio of TC50 for human HepG2 cells to IC50 for HBV-infected human HepG2 cells; type: cell-based; conditions: HepG2 cells (TC50) and HBV-infected HepG2 cells (IC50)
[2] = system: Human immunodeficiency virus 1; assay: Antiviral activity against HIV1 3B in MT4 cells after 4 days by MTT assay; type: functional
[3] = Cytotoxicity against MT4 cells at 10 ug/ml after 4 days by MTT assay; type: cell-based; conditions: human, read-out: Inhibition

| Compound | IC50 (Hepatitis B virus) | IC50 (HepG2) | selectivity ratio [1] | TC50 [2] | cytotoxicity at 96 h, 10 ug/ml [3] |
| --- | --- | --- | --- | --- | --- |
| Nc1ncnc2c1ncn2CCOCP(=O)(OCOC(=O)OC1CCCCC1)OCOC(=O)OC1CCCCC1.O=C(O)/C=C/C(=O)O | 5.33 µM | 23.1 µM | 11.9 | 63.2 µM | – |
| C[C@H](Cn1cnc2c(N)ncnc21)OCP(=O)(OCOC(=O)OC1CCCCC1)OCOC(=O)OC1CCCCC1.O=C(O)/C=C/C(=O)O | 5.94 µM | 17.5 µM | 15.6 | 92.8 µM | – |
| CC(C)OC(=O)OCOP(=O)(CO[C@H](C)Cn1cnc2c(N)ncnc21)OCOC(=O)OC(C)C.O=C(O)/C=C/C(=O)O [TENOFOVIR DISOPROXIL FUMARATE] | 5.1 µM | 2.31 µM | 10.8 | 55.2 µM | – |
| C=CCOC(=O)OCOP(=O)(COCCn1cnc2c(N)ncnc21)OCOC(=O)OCC=C.O=C(O)/C=C/C(=O)O | 8.2 µM | > 30 µM | – | 24.6 µM | 22.8% |
| C=CCOC(=O)OCOP(=O)(CO[C@H](C)Cn1cnc2c(N)ncnc21)OCOC(=O)OCC=C.O=C(O)/C=C/C(=O)O | 7.98 µM | 1.61 µM | – | 30.9 µM | – |
| Nc1ncnc2c1ncn2CCOCP(=O)(OCOC(=O)OC1CCCC1)OCOC(=O)OC1CCCC1.O=C(O)/C=C/C(=O)O | 2.46 µM | 3.51 µM | – | 22.1 µM | – |
| C[C@H](Cn1cnc2c(N)ncnc21)OCP(=O)(OCOC(=O)OCc1ccccc1)OCOC(=O)OCc1ccccc1.O=C(O)/C=C/C(=O)O | 5.5 µM | > 30 µM | 12.7 | 70.1 µM | 28.1% |
| Nc1ncnc2c1ncn2CCOCP(=O)(OCOC(=O)OCc1ccccc1)OCOC(=O)OCc1ccccc1.O=C(O)/C=C/C(=O)O | 2.15 µM | > 30 µM | 12.3 | 26.5 µM | 24.9% |
| C=CCOC(=O)OCOP(=O)(O)COCCn1cnc2c(N)ncnc21.O=C(O)/C=C/C(=O)O | 10.6 µM | 23.7 µM | – | 0.67 10^3uM | – |
| Nc1ncnc2c1ncn2CCOCP(=O)(O)O [ADEFOVIR] | 42.1 µM | – | – | – | – |
| Nc1nc(=O)n([C@@H]2CS[C@H](CO)O2)cc1F [EMTRICITABINE] | – | 27.7 µM | – | – | – |
| C[C@H](Cn1cnc2c(N)ncnc21)OCP(=O)(O)O [TENOFOVIR ANHYDROUS] | 12.3 µM | – | 31.4 | 0.39 10^3uM | – |
| C[C@H](Cn1cnc2c(N)ncnc21)OCP(=O)(OCOC(=O)OC1CCCC1)OCOC(=O)OC1CCCC1.O=C(O)/C=C/C(=O)O | 7.2 µM | > 30 µM | – | 80.2 µM | 25.5% |
| Nc1ncnc2c1ncn2CCOCP(=O)(O)OCOC(=O)OCc1ccccc1.O=C(O)/C=C/C(=O)O | 43 µM | > 30 µM | 13.7 | 0.59 10^3uM | 9% |
